Results from patent US9498480B2 (Bayer Intellectual Property GmbH, priority 2012, dated 2016).

These molecules were tested on recombinant guanylate cyclase reporter cell line (assay: Effect on a recombinant guanylate cyclase reporter cell line). Conditions: representative values, read-out: MEC (minimum effective concentration).
Type: cell-based
Method: B-2. Effect on a Recombinant Guanylate Cyclase Reporter Cell Line
The cellular activity of the compounds according to the invention is determined using a recombinant guanylate cyclase reporter cell line, as described in F. Wunder et al., Anal. Biochem. 339, 104-112 (2005).

SMILES	minimal effective concentration
Cc1n[nH]c2nc(-c3nn(Cc4ncccc4F)c4ncc(F)cc34)nc(N)c12 [Example 1, 6-{5-Fluoro-1-[(3-fluoropyridin-2-yl)methyl]-1H-pyrazolo[3,4-b]pyridin-3-yl}-3-methyl-1H-pyrazolo[3,4-d]pyrimidine-4-amine]	0.3 µM
CCN(CC)c1n[nH]c2nc(-c3nn(Cc4ncccc4F)c4ncc(F)cc34)nc(N)c12 [Example 2, N^3,N^3-Diethyl-6-{5-fluoro-1-[(3-fluoropyridin-2-yl)methyl]-1H-pyrazolo[3,4-b]pyridin-3-yl}-1H-pyrazolo[3,4-d]pyrimidine-3,4-diamine]	0.1 µM
Nc1nc(-c2nn(Cc3ncccc3F)c3ncc(F)cc23)nc2ncccc12 [Example 3, 2-{5-Fluoro-1-[(3-fluoropyridin-2-yl)methyl]-1H-pyrazolo[3,4-b]pyridin-3-yl}pyrido[2,3-d]pyrimidine-4-amine]	10 µM
COc1n[nH]c2nc(-c3nn(Cc4ncccc4F)c4ncc(F)cc34)nc(N)c12 [Example 4, 6-{5-Fluoro-1-[(3-fluoropyridin-2-yl)methyl]-1H-pyrazolo[3,4-b]pyridin-3-yl}-3-methoxy-1H-pyrazolo[3,4-d]pyrimidine-4-amine]	0.3 µM
O=c1[nH]c2nc(-c3nn(Cc4ccccc4F)c4ncc(F)cc34)nc(NCC3CC3)c2n1CC(F)(F)F [Example 5, 6-[(Cyclopropylmethyl)amino]-2-[5-fluoro-1-(2-fluorobenzyl)-1H-pyrazolo[3,4-b]pyridin-3-yl]-7-(2,2,2-trifluoroethyl)-7,9-dihydro-8H-purin-8-one]	0.3 µM
Cc1n[nH]c2nc(-c3nc(Cc4ccccc4F)n4ncccc34)nc(N)c12 [Example 7, 6-[7-(2-Fluorobenzyl)imidazo[1,5-b]pyridazin-5-yl]-3-methyl-1H-pyrazolo[3,4-d]pyrimidine-4-amine]	0.01 µM
Cc1n[nH]c2nc(-c3nn(CCC(F)(F)C(F)(F)F)c4ncc(F)cc34)nc(N)c12 [Example 8, 6-[5-Fluoro-1-(3,3,4,4,4-pentafluorobutyl)-1H-pyrazolo[3,4-b]pyridin-3-yl]-3-methyl-1H-pyrazolo[3,4-d]pyrimidine-4-amine]	0.1 µM
CCN(CC)c1n[nH]c2nc(-c3nn(CCC(F)(F)C(F)(F)F)c4ncc(F)cc34)nc(N)c12 [Example 9]	0.03 µM
Nc1nc(-c2nn(CCC(F)(F)C(F)(F)F)c3ncc(F)cc23)nc2ncccc12 [Example 10, 2-[5-Fluoro-1-(3,3,4,4,4-pentafluorobutyl)-1H-pyrazolo[3,4-b]pyridin-3-yl]pyrido[2,3-d]pyrimidine-4-amine]	0.3 µM
